Test results as given in US10028992B2, “Methods of treating muscular dystrophy” (BOARD OF REGENTS OF THE NEVADA SYSTEM OF HIGHER EDUCATION …, priority 2012, dated 2018).
Values joined by “and” are separate entries in the source; they are usually repeats but may differ in a detail not shown here. Identical values can stand only once. Like-named read-outs stand apart in the source and are kept apart here.

System: α7 integrin promoter
Assay: muscle cell-based assay: α7βgal+/− myoblasts/myotubes, LacZ reporter, β-galactosidase cleavage of FDG
Parameters: species or system mouse
Conditions: for AC50: read-out: Fit Log AC50 (converted); for Emax: read-out: Max Response [%]; for Fit HillSlope: curve fit; for Fit Zero Activity [%]: fitted activity at zero concentration; for Fit Curve Class: key not given; for Score: Table 12 Compound data, concentration-response curve fit; for Fit Infinite Activity [%]: fitted activity at infinite concentration
Experimental: An α7 integrin null mouse was produced in which exon 1 of the gene encoding the α7 integrin was replaced by the LacZ reporter. In these mice, all the transcriptional regulatory elements of the α7 integrin promoter were retained, allowing β-galactosidase to report expression of 7 integrin. A primary myoblast cell line (designated α7βgal^+/−) isolated from 10 day old α7^+/− pups were analyzed for the ability of β-galactosidase to report α7 integrin expression. α7βgal^+/− myoblasts were differentiated and subjected to X-gal staining and western analysis (FIGS. 1A and 1B).
The activity of the α7 integrin promoter was measured by β-galactosidase cleavage of the non-fluorescent compound fluorescein di-β-D-galactopyranoside (FDG) to fluorescein. This assay was used to screen compound libraries to identify molecules that up-regulate α7 integrin expression in muscle.
Also evaluated was the effect of various isoforms of laminin and the ligand for α7β1 integrin on integrin expression. Positive hits were subjected to dose-response analysis, western analysis and a myostatin counterscreen (a negative regulator of muscle growth).

[1] = Mus musculus, Table 12, log of AC50, given with negative sign, unit of AC50 not given

Row | SMILES | AC50 [1] [nM] | Emax (Mus musculus) [%] | Fit HillSlope (Table 12) | Fit Zero Activity [%] (Table 12) | Fit Curve Class (Table 12) | Score | further results
1 | O=C(COc1ccc(Cl)cc1)N1CCN(C2CCCC2)CC1.O=C(O)C(=O)O | – | – | – | – | – | – | Results in a α7+/− β-galactosidase assay, Myotubes, 0.5 uM: 0.1096; Results in a α7+/− β-galactosidase assay, Myotubes, 1 uM: 0.06035; Results in a α7+/− β-galactosidase assay, Myotubes, 5 uM: −0.07324; Results in a α7+/− β-galactosidase assay, Myotubes, 10 uM: −0.04013; Results in a α7+/− β-galactosidase assay, Myotubes, 20 uM: −0.1813; Results in a α7+/− β-galactosidase assay, Myotubes, 40 uM: −0.2711
2 | O=C(Nc1ccccc1Cl)C1CCCN1C(=O)OCc1ccccc1 (centres unmarked) | – | – | – | – | – | – | Results in a α7+/− β-galactosidase assay, Myotubes, 0.5 uM: −0.04746; Results in a α7+/− β-galactosidase assay, Myotubes, 1 uM: −0.07012; Results in a α7+/− β-galactosidase assay, Myotubes, 5 uM: −0.00214; Results in a α7+/− β-galactosidase assay, Myotubes, 10 uM: −0.05774; Results in a α7+/− β-galactosidase assay, Myotubes, 20 uM: −0.1932; Results in a α7+/− β-galactosidase assay, Myotubes, 40 uM: −0.2694
3 | C#CC1(O)CCC2C3CCC4=C/C(=N/OCC(=O)NCC(=O)NC(C(=O)O)C(C)C)CC[C@]4(C)C3CC[C@@]21C (some centres unmarked) | – | – | – | – | – | – | Results in a α7+/− β-galactosidase assay, Myotubes, 0.5 uM: 0.1086; Results in a α7+/− β-galactosidase assay, Myotubes, 1 uM: 0.2546; Results in a α7+/− β-galactosidase assay, Myotubes, 5 uM: 0.3822; Results in a α7+/− β-galactosidase assay, Myotubes, 10 uM: 0.2484; Results in a α7+/− β-galactosidase assay, Myotubes, 20 uM: 0.1342; Results in a α7+/− β-galactosidase assay, Myotubes, 40 uM: 0.073
4 | O=C1Nc2ccccc2/C1=C/c1c[nH]cn1 | – | – | – | – | – | – | Results in a α7+/− β-galactosidase assay, Myotubes, 0.5 uM: −0.09659; Results in a α7+/− β-galactosidase assay, Myotubes, 1 uM: 0.04801; Results in a α7+/− β-galactosidase assay, Myotubes, 5 uM: 0.2975; Results in a α7+/− β-galactosidase assay, Myotubes, 10 uM: 0.1108; Results in a α7+/− β-galactosidase assay, Myotubes, 20 uM: 0.1916; Results in a α7+/− β-galactosidase assay, Myotubes, 40 uM: 0.1189
5 | Cc1ccc(NS(=O)(=O)c2cccc(C(=O)O)c2)cc1S(=O)(=O)N1CCOCC1 | – | – | – | – | – | – | Results in a α7+/− β-galactosidase assay, Myotubes, 5 uM (Myotubes, compound at 5 uM): 0.6308 and 0.5052
6 | COc1cc([N+](=O)[O-])cc(/C=N/NC(=O)C(O)(c2ccccc2)c2ccccc2)c1O | – | – | – | – | – | – | Results in a α7+/− β-galactosidase assay, Myotubes, 0.5 uM: 0.1119; Results in a α7+/− β-galactosidase assay, Myotubes, 1 uM: −0.01127; Results in a α7+/− β-galactosidase assay, Myotubes, 5 uM: −0.4224; Results in a α7+/− β-galactosidase assay, Myotubes, 10 uM: −0.4434; Results in a α7+/− β-galactosidase assay, Myotubes, 20 uM: −0.2622; Results in a α7+/− β-galactosidase assay, Myotubes, 40 uM: −0.3132
7 | Cc1cc(C2CCCCC2)n(O)c(=O)c1 [Ciclopirox ethanolamine, ciclopirox ethanolamine, reference compound] | – | – | – | – | – | – | EC50 (Mus musculus, enhancement of α7 integrin expression in muscle cells, read-out: EC50): 0.6 µg/mL; Optimal Concentration (enhancement of α7 integrin expression in muscle cells): 4 µg/mL
8 | CC(OC(=O)c1cc(-c2cccnc2)nc2ccccc12)C(=O)Nc1ccc2ccccc2c1 (centres unmarked) [Compound 1] | 1120 | 191 | 3.132 | −2.9752 | 1.1 | 94 | Activity at 0.307 μM [%] **: 0%
9 | Cc1cccc(OCc2nc(C#N)c(N3CCCC3)o2)c1 [Compound 2] | 3550 | 223 | 1.4163 | 3.1995 | 1.1 | 91 | Activity at 7.660 μM [%] **: 175.022%
10 | COc1ccccc1-c1coc2c3c(ccc2c1=O)OC1CCCCN1C3 (centres unmarked) [Compound 3] | 2240 | 159 | 3.0654 | −35.3084 | 1.1 | 89 | –
11 | Cc1ccccc1C(=O)Nc1scc(-c2ccc(Br)cc2)c1C(=O)O [Compound 4] | 2820 | 137 | 1.8617 | 7.6069 | 1.1 | 87 | –
12 | COc1cc2c(cc1NC(=O)Cc1ccc(C)cc1)oc1ccccc12 [Compound 5] | 1120 | 87.1 | 2.5334 | −5.0637 | 1.1 | 86 | Activity at 38.30 μM [%] **: 87.1241%
13 | COCc1c(C(=O)OCc2nc(=O)c3sccc3[nH]2)oc2ccccc12 [Compound 6] | 1120 | 68.1 | 1.3437 | −58.5311 | 1.1 | 85 | –
14 | O=C(NC1CCCC1)c1ccc(CS(=O)(=O)Cc2ccccc2F)o1 [Compound 7] | 4470 | 105 | 1.6924 | 12.5 | 1.1 | 85 | –
15 | CN(C)S(=O)(=O)c1cccc(C(=O)Nc2ccc3c(c2)CCC3)c1 [Compound 8] | 2820 | 94.3 | 4.9549 | −15.6523 | 1.1 | 85 | –
16 | Cc1c(C(=O)O)cccc1-n1c(C)cc(/C=N/Nc2ccc([N+](=O)[O-])cn2)c1C [Compound 9] | – | – | 1.3723 | −30.5005 | 1.1 | 85 | Max Response [%]: 88.6572%; Activity at 0.307 μM [%] **: −24.4743%; Activity at 1.530 μM [%] **: 6.2893%; Activity at 7.660 μM [%] **: 68.0567%; Activity at 38.30 μM [%] **: 88.6572%; Fit Infinite Activity [%] (Table 12): 92.2022%; Fit Log AC50 (Table 12, log of AC50, given with negative sign, unit of AC50 not given): −5.55
17 | Cc1ccc(NP(=O)(Nc2ccc(C)cc2)Nc2ccc(C)cc2)cc1 [Compound 10] | 3160 | 102 | 2.8473 | 0 | 1.1 | 85 | Activity at 0.307 μM [%] **: 0%
18 | Cc1cc(OCC(=O)NC(C)C)ccc1Cl [Compound 11] | 3980 | 102 | 2.5334 | −0.509 | 1.1 | 85 | Activity at 0.307 μM [%] **: 0%
19 | COC(=O)C1=C(C)N=C(C)/C(=C(/O)OC)C1c1ccccc1OCc1c(C)no[n+]1[O-] (centres unmarked) [Compound 12] | 2820 | 100 | 1.4781 | 9.3996 | 1.1 | 85 | –
20 | COc1ccc(NC(=O)c2cccc(N3C(=O)c4ccc(C(=O)Nc5ccc(OC)c(O)c5)cc4C3=O)c2)cc1O [Compound 13] | 4470 | 95.6 | 3.9295 | −27.2857 | 1.1 | 84 | –
21 | CCOc1ccc(S(=O)(=O)NCCC(=O)NCC(c2cccs2)N2CCOCC2)cc1 (centres unmarked) [Compound 14] | 2240 | 61.7 | 2.3332 | −21.9345 | 1.1 | 84 | –
22 | CCOc1ccccc1NC(=O)c1cccc2c1C(=O)N(C1CCCCC1)C2 [Compound 15] | 3160 | 73.6 | 1.6259 | −16.1195 | 1.1 | 84 | –
23 | NC(=O)c1nsc(C(=O)N(c2ccccc2)C(C(=O)NCc2ccc(F)cc2)c2ccc(O)cc2)c1N (centres unmarked) [Compound 16] | 2240 | 75.2 | 1.3443 | −37.8568 | 1.1 | 84 | –
24 | CCc1ccc(N(C(=O)c2snc(C(N)=O)c2N)C(C(=O)NC2CCCC2)c2ccco2)cc1 (centres unmarked) [Compound 17] | 2510 | 67.6 | 1.2475 | −24.7641 | 1.1 | 84 | –
25 | COC(=O)C(=O)C/C(=N/Nc1ncnc2ccccc12)c1ccc(Cl)cc1 [Compound 18] | 10000 | – | 4.9549 | 8.7984 | 2.1 | 84 | Activity at 38.30 μM [%] **: 1767.43%; Fit Infinite Activity [%] (Table 12): 1760.36%
26 | Cc1cc(NC(=O)c2ccc(Cl)cc2Cl)no1 [Compound 19] | 1410 | 52.1 | 1.3437 | −28.8963 | 1.1 | 84 | –
27 | CCOC(=O)Cc1csc(NC(=S)NC(=O)c2cc(OC)c(OC)c(OC)c2)n1 [Compound 20] | 3550 | 82.9 | 2.3031 | −17.7204 | 1.1 | 84 | –
28 | CC(C)CC1NC(=O)N(CC(=O)N2c3ccccc3NC(=O)C2(C)C)C1=O (centres unmarked) [Compound 21] | 5620 | 93.3 | 4.4495 | 1.1731 | 1.1 | 84 | Activity at 1.530 μM [%] **: 0%
29 | COCCSc1ccccc1C(=O)Nc1cc(C)cc(C)c1 [Compound 22] | 4470 | 82.9 | 4.9549 | −0.2899 | 1.1 | 84 | Activity at 0.307 μM [%] **: 0%; Activity at 1.530 μM [%] **: 0%
30 | O=c1oc2c(-c3cccc(F)c3)cc(O)cc2s1 [Compound 23] | 3980 | 98.9 | 2.9023 | 13.3122 | 1.1 | 84 | –
